Measured values as given in patent publication US20210132041A1, “TARGET FOR DRUG TREATMENT OF TUMOR METASTASIS AND USE THEREOF” (PEKING UNIVERSITY, priority 2018, published 2021).

How the values were obtained:
[1] = test system: B16-F10 tumors; assay: Growth of subcutaneously inoculated B16-F10 tumors in C57BL/6 mice; type: in vivo, mouse; settings: FIG. 5, 2 mg/kg/d intraperitoneal
Experimental: 3. Effects on tumor growth in situ Experimental procedure: The C57BL/6 female mice of 6 to 8 week old (commercially available, for example, from Charles River) were selected for the experiment. The B16-F10 cells in the logarithmic growth phase were digested, and washed twice with PBS. After counting, the cells were resuspended in PBS at a density of 1.5×10^6/ml. The tumor cells (3×10^5 cells in 200 μL) were subcutaneously inoculated into the lateral ribs of mice. The drug-treated group was intraperitoneally injected with PRAK inhibitor-23 at 2 mg/kg/d.
The long diameter (L) and short diameter (S) of the tumor were measured with vernier calipers every two days, the tumor size was calculated with the formula L×S×S×0.5, and the tumor growth curve was drawn.

[2] = test system: spontaneous breast tumors; assay: Incidence and growth of spontaneous breast tumors in MMTV-PyMT mice; type: in vivo, mouse; settings: FIG. 12, 1 mg/kg every other day from 12th week, week 15
Experimental: The MMTV-PyMT mice were crossed with PRAK mice to obtain MMTV-PRAK WT and MMTV-PRAK knockout mice. From 8 to 10 weeks, the occurrence of breast tumors was observed. Another group of MMTV-PRAK WT mice were given PRAK inhibitor (1 mg/kg) every other day from the 12th week. At week 15, the mice were sacrificed, breast tumor nodules were counted and weighed, and lung tumor nodules were counted at the same time.

[3] = test system: B16-F10 cells; assay: MTS cell proliferation assay; type: cell-based, mouse; settings: FIG. 1, in vitro
Experimental: MTS: Same numbers of PRAK WT and KO cells were plated on 96-well plates. Cell Titer 96 Aqueous cell proliferation detection solution was added at different time points after the cells adhered to the walls. After incubation at 37° C. for 1 to 4 hours, the absorbance was measured at 490 nm and the cell proliferation curve was drawn.

[4] = test system: B16-F10 cells; assay: AnnexinV/7-AAD staining, apoptosis by flow cytometry; type: cell-based, mouse; settings: FIG. 2; 0.1 μM and 1 μM, 24 hours
Experimental: AnnexinV/7-AAD staining: Cells were plated on 24-well plates. 0.1 μM and 1 μM of PRAK inhibitor-23 were added for treatment after the cells adhered to the walls. After 24 hours, the cells were harvested for Annexin V/7-AAD staining, and the cell apoptosis was analyzed by flow cytometry.

O=C1NCc2cc(-c3cnc(Nc4ccc(N5CCOCC5)cc4)c4nccn34)ccc21 [PRAK inhibitor-23, 5-(8-((4-morpholinylphenyl)amino)imidazo [1,2-a]pyrazin-5-yl) isoindol-1-one]
no significant effect: effect on the growth of subcutaneously inoculated B16-F10 tumors at the injection site [1] | effect on the incidence and growth of spontaneous breast tumors [2] | effect on the proliferation of B16-F10 cells [3] | effect on the apoptosis of B16-F10 cells [4]
